Measurements as given in ChEMBL document CHEMBL2021794, “Synthesis, σ₁, σ₂-receptors binding affinity and antiproliferative action of new C1-substituted adamantanes” (Bioorg Med Chem, 2012).
Active and inactive are the calls of the source. The calls are words filed in the database; no cut-off is given here.

How the values were obtained:
PC-3 [1] = assay: Cell cycle arrest in human PC3 cells assessed as accumulation at S phase at 5 uM after 24 hrs by propidium iodide staining based flow cytometry (reference value: 42%); type: functional
LOX IMVI = assay: Growth inhibition of human LOXIMVI cells after 48 hrs by SRB assay; type: functional
BXPC-3 [2] = assay: Antitumor activity against human BxPC3 cells xenografted in SCID mouse assessed as tumor weight at 40 mg/kg, ip for 5 consecutive days and 2 administrations for one more week (reference value: 723 +/- 45 mg); type: functional; conditions: route intraperitoneal
IGROV-1 [3] = assay: Induction of apoptosis in human IGROV1 cells assessed as healthy cells at 50 uM after 24 hrs by Annexin V/7-AAD staining based flow cytometry (reference value: 86%); type: functional
PC-3 [4] = assay: Induction of apoptosis in human PC3 cells assessed as early apoptotic cells at 0.5 uM after 24 hrs by Annexin V/7-AAD staining based flow cytometry (reference value: 5%); type: functional
BXPC-3 [5] = assay: Cell cycle arrest in human BxPC3 cells assessed as accumulation at G2 phase at 5 uM after 24 hrs by propidium iodide staining based flow cytometry (reference value: 12%); type: functional
PC-3 [6] = assay: Induction of apoptosis in human PC3 cells assessed as cleaved caspase-3 containing cells at 50 uM after 24 hrs by FACS analysis (reference value: 3%); type: functional
BXPC-3 [7] = assay: Induction of apoptosis in human BxPC3 cells assessed as late apoptotic cells at 5 uM after 24 hrs by Annexin V/7-AAD staining based flow cytometry (reference value: 9%); type: functional
IGROV-1 [8] = assay: Cell cycle arrest in human IGROV1 cells assessed as accumulation at G2 phase at 0.5 uM after 24 hrs by propidium iodide staining based flow cytometry (reference value: 19%); type: functional
DU-145 = assay: Growth inhibition of human DU145 cells after 48 hrs by SRB assay; type: functional; conditions: DU-145, 48 h
IGROV-1 [9] = assay: Cell cycle arrest in human IGROV1 cells assessed as accumulation at S phase at 0.5 uM after 24 hrs by propidium iodide staining based flow cytometry (reference value: 29%); type: functional
IGROV-1 [10] = assay: Induction of apoptosis in human IGROV1 cells assessed as healthy cells at 5 uM after 24 hrs by Annexin V/7-AAD staining based flow cytometry (reference value: 86%); type: functional
BXPC-3 [11] = assay: Induction of apoptosis in human BxPC3 cells assessed as early apoptotic cells at 0.5 uM after 24 hrs by Annexin V/7-AAD staining based flow cytometry (reference value: 11%); type: functional
IGROV-1 [12] = assay: Induction of apoptosis in human IGROV1 cells assessed as cleaved caspase-3 containing cells at 50 uM after 24 hrs by FACS analysis (reference value: 4%); type: functional
BXPC-3 [13] = assay: Cell cycle arrest in human BxPC3 cells assessed as accumulation at G1 phase at 5 uM after 24 hrs by propidium iodide staining based flow cytometry (reference value: 41%); type: functional
Mus musculus = assay: Toxicity in CD1 mouse assessed as mortality at 40 mg/kg, ip after 3 to 4 weeks chronic treatment; type: organism-based; set-up: dose 40 mg/kg, route intraperitoneal; conditions: in vivo
IGROV-1 [14] = assay: Induction of apoptosis in human IGROV1 cells assessed as late apoptotic cells at 50 uM after 24 hrs by Annexin V/7-AAD staining based flow cytometry (reference value: 4%); type: functional
PC-3 [15] = assay: Cell cycle arrest in human PC3 cells assessed as accumulation at < G1 phase at 0.5 uM after 24 hrs by propidium iodide staining based flow cytometry (reference value: 4%); type: functional
[16] = Displacement of [3H](+)1-DTG from sigma-2 receptor expressed in rat cerebral cortex membranes after 2 hrs by liquid scintillation spectroscopy; type: cell membranes, Membrane
BXPC-3 [17] = assay: Induction of apoptosis in human BxPC3 cells assessed as cleaved caspase-3 containing cells at 5 uM after 24 hrs by FACS analysis (reference value: 10%); type: functional
BXPC-3 [18] = assay: Induction of apoptosis in human BxPC3 cells assessed as late apoptotic cells at 0.5 uM after 24 hrs by Annexin V/7-AAD staining based flow cytometry (reference value: 9%); type: functional
PC-3 [19] = assay: Cell cycle arrest in human PC3 cells assessed as accumulation at G2 phase at 50 uM after 24 hrs by propidium iodide staining based flow cytometry (reference value: 13%); type: functional
PC-3 [20] = assay: Cell cycle arrest in human PC3 cells assessed as accumulation at >G2 phase at 0.5 uM after 24 hrs by propidium iodide staining based flow cytometry (reference value: 6%); type: functional
MCF7 [21] = assay: Growth inhibition of human MCF7 cells after 48 hrs by SRB assay; type: functional; conditions: MCF7, 48 h
PC-3 [22] = assay: Induction of apoptosis in human PC3 cells assessed as healthy cells at 0.5 uM after 24 hrs by Annexin V/7-AAD staining based flow cytometry (reference value: 92%); type: functional
IGROV-1 [23] = assay: Induction of apoptosis in human IGROV1 cells assessed as healthy cells at 0.5 uM after 24 hrs by Annexin V/7-AAD staining based flow cytometry (reference value: 86%); type: functional
IGROV-1 [24] = assay: Cell cycle arrest in human IGROV1 cells assessed as accumulation at S phase at 15 uM after 24 hrs by propidium iodide staining based flow cytometry (reference value: 29%); type: functional
PC-3 [25] = assay: Cell cycle arrest in human PC3 cells assessed as accumulation at G1 phase at 5 uM after 24 hrs by propidium iodide staining based flow cytometry (reference value: 36%); type: functional
IGROV-1 [26] = assay: Induction of apoptosis in human IGROV1 cells assessed as total apoptotic death cells at 0.5 uM after 24 hrs by Annexin V/7-AAD staining based flow cytometry (reference value: 13%); type: functional
SF-268 = assay: Cytotoxicity against human SF268 cells after 48 hrs by trypan blue assay; type: functional, cell-based
PC-3 [27] = assay: Cell cycle arrest in human PC3 cells assessed as accumulation at G1 phase at 0.5 uM after 24 hrs by propidium iodide staining based flow cytometry (reference value: 36%); type: functional
MCF7 [28] = assay: Cytotoxicity against human MCF7 cells after 48 hrs by trypan blue assay; type: functional, cell-based
PC-3 [29] = assay: Induction of apoptosis in human PC3 cells assessed as cleaved caspase-3 containing cells at 0.5 uM after 24 hrs by FACS analysis (reference value: 3%); type: functional
BXPC-3 [30] = assay: Cell cycle arrest in human BxPC3 cells assessed as accumulation at < G1 phase at 5 uM after 24 hrs by propidium iodide staining based flow cytometry (reference value: 9%); type: functional
PC-3 [31] = assay: Growth inhibition of human PC3 cells after 48 hrs by SRB assay; type: functional; conditions: PC-3, 48 h
BXPC-3 [32] = assay: Induction of apoptosis in human BxPC3 cells assessed as late apoptotic cells at 50 uM after 24 hrs by Annexin V/7-AAD staining based flow cytometry (reference value: 9%); type: functional
BXPC-3 [33] = assay: Cell cycle arrest in human BxPC3 cells assessed as accumulation at S phase at 0.5 uM after 24 hrs by propidium iodide staining based flow cytometry (reference value: 33%); type: functional
PC-3 [34] = assay: Induction of apoptosis in human PC3 cells assessed as late apoptotic cells at 5 uM after 24 hrs by Annexin V/7-AAD staining based flow cytometry (reference value: 2%); type: functional
[35] = read-out: LC50 (the source's name)

CN1CCN(c2ccc(C(c3ccccc3)C34CC5CC(CC(C5)C3)C4)cc2)CC1 (stereo unspecified)
Activity (PC-3 [1]): 42%
GI50 (LOX IMVI): 3.36 µM
LC50 (concentration killing 50% of cells) (LOX IMVI): 8.41 µM
TGI (LOX IMVI): 5.88 µM
Activity (BXPC-3 [2]): 690 mg
Activity (IGROV-1 [3]): 31%
Activity (PC-3 [4]): 3%
Activity (BXPC-3 [5]): 12%
Activity (PC-3 [6]): 18%
Activity (BXPC-3 [7]): 17%
Activity (IGROV-1 [8]): 20%
GI50 (DU-145): 6.43 µM
TGI (DU-145): 65.5 µM
CC50 (DU-145; [35]): 100 µM
Activity (IGROV-1 [9]): 28%
Activity (IGROV-1 [10]): 88%
Activity (BXPC-3 [11]): 10%
Activity (IGROV-1 [12]): 68%
Activity (BXPC-3 [13]): 43%
Activity (Mus musculus): Non-toxic
Activity (IGROV-1 [14]): 16%
Activity (PC-3 [15]): 9%
IC50 [16]: 0.0376 µM
Activity (BXPC-3 [17]): 5%
Activity (BXPC-3 [18]): 6%
Activity (PC-3 [19]): 10%
Activity (PC-3 [20]): 4%
GI50 (MCF7 [21]): 11.6 µM
TGI (MCF7 [21]): 16.9 µM
CC50 (MCF7 [21]; [35]): 3.17 µM
Activity (PC-3 [22]): 95%
Activity (IGROV-1 [23]): 89%
Activity (IGROV-1 [24]): 27%
Activity (PC-3 [25]): 34%
Activity (IGROV-1 [26]): 10%
Activity (SF-268): Active
Activity (PC-3 [27]): 33%
Activity (MCF7 [28]): Active
Activity (PC-3 [29]): 1%
Activity (BXPC-3 [30]): 8%
GI50 (PC-3 [31]): 6.8 µM
TGI (PC-3 [31]): 32.9 µM
CC50 (PC-3 [31]; [35]): 100 µM
Activity (BXPC-3 [32]): 33%
Activity (BXPC-3 [33]): 34%
Activity (PC-3 [34]): 2%
